Measured values taken from patent US20250066389A1, “HETEROCYCLIC AMIDES AND METHODS OF USING THE SAME” (Rgenta Therapeutics, Inc., priority 2021, published 2025).

tested on: PMS1; assay: Mini-Gene Reporter Assay—PMS1 (firefly luciferase mini-gene reporter transiently transfected into HEK293 cells); assay type: cell-based; conditions: Homo sapiens; at 5 uM; mini-gene firefly luciferase reporter in HEK293 cells; read-out: PMS1 % Effect at 5 uM
Procedure, shortened: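 Luminescence (RLU) read-out of exon inclusion: compound dilutions, tested in duplicate, act on transiently transfected HEK293 cells carrying a firefly luciferase reporter fused downstream of the PMS1 skipped-exon region. Potency derived by Levenberg-Marquardt curve fitting, with percent effect at 5 μM.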

First: CCOc1cc2nc(C)cn2cc1C(=O)Nc1cnc(N2CCC(N)(CC)CC2)nc1 [Compound 639]
Second: CCOc1cc2nc(C)cn2cc1C(=O)Nc1cnc(N2CCC(NC)CC2)nc1 [Compound 648]
The activation at 5 µM of the first is higher: greater than 75% for the first, less than 50% for the second.

Compared with CCOc1cc2nc(C)cn2cc1C(=O)Nc1cnc(N2CC(C)NCC2C)nc1 (centres unmarked) [Compound 644], CCOc1cc2nc(C)cn2cc1C(=O)Nc1cnc(N2CCNC(C)C2)nc1 (centres unmarked) [Compound 654] is higher in activation at 5 µM: 50 to 75% for the first, greater than 75% for the second.

First: CCOc1cc2nc(C)cn2cc1C(=O)Nc1cnc(N2C[C@H]3CNC[C@H]3C2)nc1 [Compound 646]
Second: CCOc1cc2nc(C)cn2cc1C(=O)Nc1cnc(N2CC(C3CNC3)C2)cn1 [Compound 664]
The activation at 5 µM of the first is lower: 50 to 75% for the first, greater than 75% for the second.

Compared with CCOc1cc2nc(C)cn2cc1C(=O)Nc1cnc(N(C)C2CCNCC2)nc1 [Compound 649], CCOc1cc2nc(C)cn2cc1C(=O)Nc1cnc(N2CCCNCC2)nc1 [Compound 653] is lower in activation at 5 µM: 50 to 75% for the first, less than 50% for the second.

Compared with CCOc1cc2nc(C)cn2cc1C(=O)Nc1cnc(NCC2CCNC23CCC3)cn1 (centres unmarked) [Compound 659], CCOc1cc2nc(C)cn2cc1C(=O)Nc1cnc(NCC2(F)CCNC2)cn1 (centres unmarked) [Compound 674] is lower in activation at 5 µM: greater than 75% for the first, 50 to 75% for the second.

CCOc1cc2nc(C)cn2cc1C(=O)Nc1cnc(N2CC(O)(CNC)C2)cn1 [Compound 662] and CCOc1cc2nc(C)cn2cc1C(=O)Nc1cnc(N2CCC(NC)C2)cn1 (centres unmarked) [Compound 688] cannot be ordered by activation at 5 µM: greater than 75% for the first, greater than 75% for the second.

Compared with CCOc1cc2nc(C)cn2cc1C(=O)Nc1cnc(NC2CNC(C)(C)C2)cn1 (centres unmarked) [Compound 663], CCOc1cc2nc(C)cn2cc1C(=O)Nc1cnc(N[C@@H]2CNC[C@@H]2F)cn1 [Compound 666] is lower in activation at 5 µM: greater than 75% for the first, 50 to 75% for the second.

CCOc1cc2nc(C)cn2cc1C(=O)Nc1cnc(N2CC(N)C(C)(C)C2)cn1 (centres unmarked) [Compound 667] and CCOc1cc2nc(C)cn2cc1C(=O)Nc1cnc(N2CC(N)C3(CC3)C2)cn1 (centres unmarked) [Compound 678] cannot be ordered by activation at 5 µM: greater than 75% for the first, greater than 75% for the second.

First: CCOc1cc2nc(C)cn2cc1C(=O)Nc1cnc(NCCC2CNCC(C)O2)cn1 (centres unmarked) [Compound 669]
Second: CCOc1cc2nc(C)cn2cc1C(=O)Nc1cnc(N2CCNC[C@H]2C)cn1 [Compound 692]
The activation at 5 µM of the first is lower: less than 50% for the first, greater than 75% for the second.

Compared with CCOc1cc2nc(C)cn2cc1C(=O)Nc1cnc(N2CC[C@@H](C)[C@@H](NC)C2)cn1 [Compound 671], CCOc1cc2nc(C)cn2cc1C(=O)Nc1cnc(N2CCCC(NC)C2)cn1 (centres unmarked) [Compound 690] is higher in activation at 5 µM: less than 50% for the first, 50 to 75% for the second.

Compared with CCOc1cc2nc(C)cn2cc1C(=O)Nc1cnc(N2C[C@@H](F)C[C@H]2CN)cn1 [Compound 672], CCOc1cc2nc(C)cn2cc1C(=O)Nc1cnc(N2CCC(N)C2)cn1 (centres unmarked) [Compound 694] is higher in activation at 5 µM: 50 to 75% for the first, greater than 75% for the second.

Compared with CCOc1cc2nc(C)cn2cc1C(=O)Nc1cnc(N2CCC3(CNCCO3)C2)cn1 (centres unmarked) [Compound 673], CCOc1cc2nc(C)cn2cc1C(=O)Nc1cnc(N2CCOC3(CCNC3)C2)cn1 (centres unmarked) [Compound 676] is higher in activation at 5 µM: less than 50% for the first, 50 to 75% for the second.

First: CCOc1cc2nc(C)cn2cc1C(=O)Nc1cnc(NCc2cccc(CNC)c2)cn1 [Compound 679]
Second: CCOc1cc2nc(C)cn2cc1C(=O)Nc1cnc(N2CCC(NC)CC2)cn1 [Compound 691]
The activation at 5 µM of the first is lower: less than 50% for the first, greater than 75% for the second.

Going from CCOc1cc2nc(C)cn2cc1C(=O)Nc1cnc(N2CCC3(CC2)CNCCO3)cn1 [Compound 683] to CCOc1cc2nc(C)cn2cc1C(=O)Nc1cnc(N2CCNCC2)cn1 [Compound 693], the activation at 5 µM rises from less than 50% to greater than 75%.

First: CCOc1cc2nc(C)cn2cc1C(=O)Nc1cnc(N2CCC3(CCNCC3)C2)cn1 [Compound 685]
Second: CCOc1cc2nc(C)cn2cc1C(=O)Nc1cnc(N2C3CCC2CNC3)cn1 [Compound 686]
The activation at 5 µM of the first is lower: 50 to 75% for the first, greater than 75% for the second.

CCNCC1CCN(c2cnc(NC(=O)c3cn4cc(C)nc4cc3OCC)cn2)CC1 [Compound 687] gave an activation at 5 µM greater than 75%.

same assay, conditions: Homo sapiens; mini-gene firefly luciferase reporter in HEK293 cells

COc1cc2nc(C)cn2cc1C(=O)Nc1ccc(N2C[C@H]3CNCC[C@H]3C2)cc1F [Compound 630] was tested, and the IC50 was less than 1000 nM.
